Measurements published in US11512090B2, “Muscarinic acetylcholine M1 receptor antagonists” (PIPELINE THERAPEUTICS, INC., priority 2018, dated 2022).
Where two headings read alike, the source gives them in different places.

Columns and labels:
Type in all cases: cell-based
[1] = target: T1, M2 (Homo sapiens, UniProt P08172); test: In vitro functional assay of muscarinic acetylcholine receptor activity, M2
T1 sequence (P08172 1-466): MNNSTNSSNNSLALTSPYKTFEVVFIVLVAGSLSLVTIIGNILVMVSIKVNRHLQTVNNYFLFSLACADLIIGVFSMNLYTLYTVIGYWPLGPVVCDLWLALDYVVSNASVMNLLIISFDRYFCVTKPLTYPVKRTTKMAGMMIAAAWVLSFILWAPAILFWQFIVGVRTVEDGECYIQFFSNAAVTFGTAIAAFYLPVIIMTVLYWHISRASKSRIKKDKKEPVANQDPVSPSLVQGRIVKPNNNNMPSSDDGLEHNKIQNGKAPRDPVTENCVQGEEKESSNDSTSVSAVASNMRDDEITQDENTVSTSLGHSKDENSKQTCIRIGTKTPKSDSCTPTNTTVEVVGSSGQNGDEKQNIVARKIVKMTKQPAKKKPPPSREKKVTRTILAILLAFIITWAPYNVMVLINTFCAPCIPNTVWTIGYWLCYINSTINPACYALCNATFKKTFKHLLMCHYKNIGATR

[2] = target: M3 (Homo sapiens, UniProt P20309); test: In vitro functional assay of muscarinic acetylcholine receptor activity, M3; conditions: antagonist IC50 at M3; read-out: M3 IC50
M3, sequence (P20309 whole entry): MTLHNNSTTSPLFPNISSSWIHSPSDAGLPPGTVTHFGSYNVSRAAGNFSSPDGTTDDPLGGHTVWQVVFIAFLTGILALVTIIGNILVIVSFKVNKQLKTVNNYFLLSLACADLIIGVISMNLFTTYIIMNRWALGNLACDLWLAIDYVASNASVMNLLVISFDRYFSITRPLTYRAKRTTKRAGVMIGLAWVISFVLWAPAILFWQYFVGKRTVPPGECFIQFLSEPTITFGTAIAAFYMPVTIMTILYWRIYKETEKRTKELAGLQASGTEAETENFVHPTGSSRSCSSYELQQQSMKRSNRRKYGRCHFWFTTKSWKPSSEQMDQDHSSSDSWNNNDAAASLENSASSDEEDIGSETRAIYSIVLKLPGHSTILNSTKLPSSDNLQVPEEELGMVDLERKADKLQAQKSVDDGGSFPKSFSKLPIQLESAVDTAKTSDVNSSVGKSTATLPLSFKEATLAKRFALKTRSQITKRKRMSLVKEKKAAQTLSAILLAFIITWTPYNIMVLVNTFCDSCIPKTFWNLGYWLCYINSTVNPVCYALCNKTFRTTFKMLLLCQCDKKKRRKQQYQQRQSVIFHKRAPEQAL

[3] = target: T2, human M1 receptor (Homo sapiens, UniProt P11229); test: In vitro functional assay of muscarinic acetylcholine receptor activity (aequorin calcium flux, antagonist mode vs EC80 acetylcholine), M1
T2 sequence (P11229 1-460): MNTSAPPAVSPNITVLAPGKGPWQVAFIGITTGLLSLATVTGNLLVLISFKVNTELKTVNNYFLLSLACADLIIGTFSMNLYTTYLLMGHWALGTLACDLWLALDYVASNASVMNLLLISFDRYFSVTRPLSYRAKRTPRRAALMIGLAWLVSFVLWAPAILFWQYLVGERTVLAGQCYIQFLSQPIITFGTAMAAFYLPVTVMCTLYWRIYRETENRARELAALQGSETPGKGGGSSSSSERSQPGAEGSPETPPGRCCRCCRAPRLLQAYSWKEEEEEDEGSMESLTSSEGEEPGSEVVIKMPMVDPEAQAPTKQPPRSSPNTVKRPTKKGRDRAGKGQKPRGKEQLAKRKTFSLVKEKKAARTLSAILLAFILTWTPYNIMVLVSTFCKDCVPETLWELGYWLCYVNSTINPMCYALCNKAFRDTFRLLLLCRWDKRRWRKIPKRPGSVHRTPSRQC
Procedure, shortened: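 Antagonism at M1 was measured as a concentration-dependent reduction of the EC80 acetylcholine-evoked aequorin luminescence, from which IC50 was derived. Human M1 CHO-K1 aequorin cells were first loaded with 5 uM coelenterazine h for 4 h and exposed to compound for 30 min at room temperature.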

[4] = antagonist IC50 at M2, read-out: M2 IC50
[5] = CHO-K1 cells stably expressing human M1 receptor with Aequorin, decrease in EC80 acetylcholine response, read-out: M1 IC50

SMILES	IC50 [1, 4] [nM]	IC50 [2] [nM]	IC50 [3, 5] [nM]	IC50 [3] [nM]	IC50 [1] [nM]
CC1CN(c2ccc(C#N)cn2)[C@H](C)CN1C(=O)CCS(=O)(=O)c1cccc2ncsc12 (stereo partly drawn) [Example 126, 6-[(2R)-4-[3-(1,3-benzothiazole-7-sulfonyl)propanoyl]-2,5-dimethylpiperazin-1-yl]pyridine-3-carbonitrile]	> 10000	> 10000	100 to 1000		
Cc1cc(F)cnc1N1CC(C)N(C(=O)CCS(=O)(=O)c2cccc3ncsc23)C[C@H]1C (stereo partly drawn) [Example 127, 3-(1,3-benzothiazole-7-sulfonyl)-1-[(5R)-4-(5-fluoro-3-methylpyridin-2-yl)-2,5-dimethylpiperazin-1-yl]propan-1-one]	100 to 1000	1000 to 10000	< 100		
N#Cc1ccc(N2CCN(C(=O)CCCc3cccc4ncoc34)CC2)nc1 [Example 129, 6-{4-[4-(1,3-benzoxazol-7-yl)butanoyl)piperazin-1-yl}pyridine-3-carbonitrile]	1000 to 10000	> 10000	100 to 1000		
N#Cc1cc(N2C3CCC2CN(C(=O)CCS(=O)(=O)c2cccc4nccn24)C3)ccc1F [Example 130, 2-fluoro-5-[3-(3-{imidazo[1,2-a]pyridine-5-sulfonyl}propanoyl)-3,8-diazabicyclo[3.2.1]octan-8-yl)benzonitrile]	1000 to 10000	> 10000		< 100	
N#Cc1cc(N2C3CCC2CN(C(=O)CCNCc2c(F)ccc4nccn24)C3)ccc1F [Example 131, 2-fluoro-5-(3-{3-[({6-fluoroimidazo[1,2-a]pyridin-5-yl}methyl)amino]propanoyl}-3,8-diazabicyclo[3.2.1]octan-8-yl)benzonitrile]	> 10000	> 10000		100 to 1000	
N#Cc1ccc(N2CC3CCC(C2)N3C(=O)CCS(=O)(=O)c2cccc3ncsc23)nc1 [Example 132, 6-{8-{3-(1,3-benzothiazole-7-sulfonyl)propanoyl]-3,8-diazabicyclo[3.2.1]octan-3-yl}pyridine-3-carbonitrile]		1000 to 10000		< 100	100 to 1000
N#Cc1ccc(N2C3COCC2CN(C(=O)CCS(=O)(=O)c2cccc4ncsc24)C3)nc1 [Example 133, 6-{7-[3-(1,3-benzothiazole-7-sulfonyl)propanoyl]-3-oxa-7,9-diazabicyclo[3.3.1]nonan-9-yl}pyridine-3-carbonitrile]		> 10000		< 100	100 to 1000
Cc1cc(F)cnc1N1CC(C)N(C(=O)CCS(=O)(=O)c2cccc3ncsc23)C(C)C1 (stereo not drawn) [Example 135, 3-(1,3-benzothiazole-7-sulfonyl)-1-[4-(5-fluoro-3-methylpyridin-2-yl)-2,6-dimethylpiperazin-1-yl]propan-1-one]	100 to 1000	1000 to 10000	< 100		
O=C(CCS(=O)(=O)c1cccc2nccn12)N1CC2CCC(C1)N2c1ccc(C(F)(F)F)cn1 [Example 136, 3-{imidazo[1,2-a]pyridine-5-sulfonyl}-1-{8-[5-(trifluoromethyl)pyridin-2-yl]-3,8-diazabicyclo[3.2.1]octan-3-yl}propan-1-one]	1000 to 10000	1000 to 10000		< 100	
Nc1cc(N2CCN(C(=O)CCS(=O)(=O)c3cccc4ncsc34)CC2)c(Cl)cn1 [Example 137, 1-[4-(2-amino-5-chloropyridin-4-yl)piperazin-1-yl]-3-(1,3-benzothiazole-7-sulfonyl)propan-1-one]	> 10000	> 10000	1000 to 10000		
O=C(CCS(=O)(=O)c1cccc2ncsc12)N1CCN(c2ccc(CO)cc2)CC1 [Example 138, 3-(1,3-benzothiazole-7-sulfonyl)-1-{4-[4-(hydroxymethyl)phenyl]piperazin-1-yl}propan-1-one]	> 10000	> 10000	100 to 1000		
O=C(CCNCc1c(F)ccc2nccn12)N1CC2CCC(C1)N2c1ccncc1F [Example 139, 3-[({6-fluoroimidazo[1,2-a]pyridin-5-yl}methyl)amino]-1-[8-(3-fluoropyridin-4-yl)-3,8-diazabicyclo[3.2.1]octan-3-yl]propan-1-one]	> 10000	> 10000		100 to 1000	
O=C(CCS(=O)(=O)c1cccc2ncsc12)N1CC=C(c2ccc(C(F)(F)F)cn2)CC1 [Example 140, 3-(1,3-benzothiazole-7-sulfonyl)-1-[5-(trifluoromethyl)-1′,2′,3′,6′-tetrahydro-[2,4′-bipyridin]-1′-yl]propan-1-one]	1000 to 10000	1000 to 10000	< 100		
N#Cc1ccc(C2=CC3CCC(C2)N3C(=O)CCS(=O)(=O)c2cccc3ncsc23)nc1 (stereo not drawn) [Example 141, 6-{8-[3-(1,3-benzothiazole-7-sulfonyl)propanoyl]-8-azabicyclo[3.2.1]oct-2-en-3-yl}pyridine-3-carbonitrile]	1000 to 10000	> 10000		100 to 1000	
N#Cc1ccc(C2CC3CCC(C2)N3C(=O)CCS(=O)(=O)c2cccc3ncsc23)nc1 (stereo not drawn) [Example 142, 6-{8-[3-(1,3-benzothiazole-7-sulfonyl)propanoyl]-8-azabicyclo[3.2.1]octan-3-yl}pyridine-3-carbonitrile]	1000 to 10000	> 10000	1000 to 10000		
O=C(CCS(=O)(=O)c1cccc2nccn12)N1CC2CCC(C1)N2c1ccc(Cl)cn1 [Example 143, 1-[8-(5-chloropyridin-2-yl)-3,8-diazabicyclo[3.2.1]octan-3-yl]-3-{imidazo[1,2-a]pyridine-5-sulfonyl}propan-1-one]	1000 to 10000	1000 to 10000		< 100	
Cc1cc(C#N)ncc1N1CCN(C(=O)CCS(=O)(=O)c2cccc3nccn23)[C@@H](C)C1 [Example 144, 5-[(3S)-4-(3-{imidazo[1,2-a]pyridine-5-sulfonyl}propanoyl)-3-methylpiperazin-1-yl]-4-methylpyridine-2-carbonitrile]	> 10000	> 10000	< 100		
N#Cc1ccc(N2C3CCC2CN(C(=O)CCS(=O)(=O)c2cccc4ncsc24)C3)cn1 [Example 146, 5-{3-[3-(1,3-benzothiazole-7-sulfonyl)propanoyl]-3,8-diazabicyclo[3.2.1]octan-8-yl}pyridine-2-carbonitrile]	100 to 1000	100 to 1000		< 100	
O=C(CCS(=O)(=O)c1cccc2ncsc12)N1CC2CCC(C1)N2c1ccc(C(F)(F)F)cn1 [Example 147, 3-(1,3-benzothiazole-7-sulfonyl)-1-{8-[5-(trifluoromethyl)pyridin-2-yl]-3,8-diazabicyclo[3.2.1]octan-3-yl}propan-1-one]	< 100	< 100		< 100	
O=C(CCNCc1cccc2ncsc12)N1CC2CCC(C1)N2c1ccc(C(F)(F)F)cn1 [Example 148, 3-{[(1,3-benzothiazol-7-yl)methyl]amino}-1-{8-[5-(trifluoromethyl)pyridin-2-yl]-3,8-diazabicyclo[3.2.1]octan-3-yl}propan-1-one]	1000 to 10000	1000 to 10000		100 to 1000	
Cn1cnc2cccc(S(=O)(=O)CCC(=O)N3CCN(c4ccc(C(F)(F)F)cn4)CC3)c21 [Example 149, 3-[(1-methyl-1H-1,3-benzodiazol-7-yl)sulfonyl]-1-{4-[5-(trifluoromethyl)pyridin-2-yl]piperazin-1-yl}propan-1-one]	100 to 1000	1000 to 10000	< 100		
